Results on three substances are retold here after patent publication US9687529B2, “Method of controlling coagulation” (Duke University, priority 2011, dated 2017).

Where “and” joins values, the source holds several entries; their conditions need not be identical. Equal entries are not always repeated. A value given as a limit tells only on which side of the number the result lay.

The test system of data set [1] is clot formation in whole blood. Put plainly: Thromboelastography (TEG), whole blood stimulated with tissue factor. The format is cell-based, human. Here is the method:
Blood was drawn from healthy, consented volunteers under a Duke University Institutional Review Board approved protocol and anticoagulated with 3.2% sodium citrate. Whole blood (320 μL) was mixed with anticoagulant (heparin or aptamers) (10 μL) and kaolin (Haemonetics, Niles, Ill.) (10 μL) or CAT PRP reagent (Diagnostica Stago, 0.33 ρM TF final) (10 μL) was added to stimulate clotting. CaCl2 (20 μL) was immediately added to overcome the citrate, the mixture was added to a plain disposable plastic TEG cup (Haemonetics), and the assay was run according to the manufacturer's instructions. Clot formation at 37° C. was measured with a Thromboelastograph Analyzer (Haemonetics, Niles, Ill.) until a stable clot was formed (i.e., a maximum amplitude was reached) or for three hours with the aptamer combinations. The time lag time, α-angle, and maximum amplitude were automatically calculated by the TEG® Analytical Software version 4.2.3 (Haemonetics).
Because kaolin stimulates blood via the intrinsic pathway, it is unlikely that 7S-1 (FVIIa aptamer) would impair clot formation with this type of stimulation; thus, this aptamer was tested in a modified TEG with TF stimulation. CAT platelet rich plasma (PRP) reagent (TF) was diluted to a final concentration of 0.33 ρM TF to stimulate clotting.

Data set [2] has as its system whole blood. The data set can be described thus: Isolated 25-mL oxygenator circuit (Example II). To be noted: 2 micromolar. Here is the method: FIG. 18 is a photograph of the isolated 25-mL oxygenator circuit, the principal components of which are a 5-mL venous reservoir, a custom-designed polypropylene membrane oxygenator, segments of 1.6 mm internal diameter silicone tubing that connect the oxygenator with the reservoir, and a small roller pump. The oxygenator is constructed of two 10 cm×10 cm rectangular Plexiglas® shells that surround and hold a 9.5 cm×9.5 cm×1 mm polypropylene membrane. Its priming volume is 4 mL. The pump circulates the blood continuously from the reservoir through the oxygenator and back to the reservoir.
Unpublished experiments have shown that the thrombogenicity of the isolated 25-mL oxygenator circuit resembles the thrombogenicity of a CPB circuit. […] Clot formation occurred approximately 30 minutes after circulation was started. […] In contrast, UFH 5, U/mL, as well as the combination of RNA9.3t, RNA11F7t, and thrombin aptamer both prevented clot formation in blood circulated for 2 hours in the isolated circuit.

The test system of data set [3] is clot formation in whole blood. Put plainly: TEG of whole blood, coagulation triggered by kaolin (Example I). The format is cell-based. To be noted: for α: buffer 44.9 degrees; for MA: buffer 63.1 mm; for R: buffer 6.8 minutes. Here is the method: (§1) TEG is a waveform generated from serial measurements of the torque transmitted from a small oscillating cup to the tip of a metal pin inserted into the cup by a 360 microliter sample of blood or plasma added to the cup.
(§2) A 360 microliter blood sample has been added to the cup. For 180 minutes after the sample is added, the cup oscillates alternatively clockwise and counterclockwise through an arc of 4° 45′ at a frequency of one oscillation cycle—i. e., one clockwise rotation and one counterclockwise rotation—every 10 seconds. The lower end of the pin is immersed by the sample; the upper end is suspended from a torsion wire. The TEG analyzer records a single measurement of rotation-induced torque after each clockwise rotation and after each counterclockwise rotation of the cup. “The torque of the rotating cup is transmitted to the immersed pin only after fibrin-platelet bonding has linked the cup and [the] pin together. The strength of these fibrin-platelet bonds affects the magnitude of the pin motion, such that strong clots move the pin directly in phase with the cup motion. Thus, the magnitude of the output is directly related to the strength of the formed clot . . . . [If] the clot retracts or lyses, these bonds are broken and the transfer of cup motion is diminished. The rotation movement of the pin is converted by a mechanical-electrical transducer to an electrical signal which can be monitored by a computer” (TEG 5000 User Manual, pp 3-4, 1999-2007)). The computer converts the series of electrical signals into the TEG tracing.
In the absence of an anticoagulant (A), R was 6.8 minutes, α was 44.9 degrees, and MA was 63.1 mm. […] Thus, each aptamer, to varying degrees, prolonged the time to clot formation, reduced the rate of clot strengthening, and reduced the ultimate strength of the clot. However, as was true in the previous experiment, no aptamer acting alone at the concentrations tested prevented clot formation.

The subject of data set [4] is clot formation in whole blood. Put plainly: TEG of whole blood, coagulation triggered by tissue factor (Example I). The note with it: TF; for clot formation (in words): FVIIa aptamer 0.5, FIXa aptamer 1.0, FXa aptamer 1.0 micromolar. The data set is classed as cell-based. The procedure:
as §1, §2

Data set [5] relates to clot formation in normal human platelet poor plasma. The data set can be described thus: Activated partial thromboplastin time (aPTT) plasma clotting assay. The format is biochemical. The note with it: for increase of aPTT clotting time: 4 μM aptamer. Here is the method: (§3) The activated partial thromboplastin time (aPTT) and prothrombin time (PT) assays were performed on a model ST4 mechanical coagulometer (Diagnostica Stago, Parsippany, N.J.) as previously described (Bompiani et al, J Thromb Haemost 10:870-80 (2012)). For the aPTT, 50 μL of normal human platelet poor plasma (PPP) was incubated with 50 μL TriniClot aPTT S (Trinity BioTech, Bray, Co Wicklow, Ireland) at 37° C. for 5 min. Aptamer(s) (5 μL) was added, and the mixture was incubated at 37° C. for another 5 min, and CaCl2 (50 μL) was added to initiate the assay. For the PT, 50 μL of normal human PPP was incubated with 5 μL of aptamer(s) at 37° C. for 5 min. TriniClot PT Excel reagent (Trinity BioTech, Bray, Co Wicklow, Ireland) (100 μL) was added to initiate the reaction. Assays with a combination of two aptamers contain an equimolar concentration of each individual aptamer, and the data shown are the total RNA concentration.
(§4) To compare the anticoagulant effect of these four aptamers, dose-response titrations were performed in several clinical plasma-based clotting assays. The activated partial thromboplastin time (aPTT) and prothrombin time (PT) are plasma clotting assays that are clinically used to probe for abnormalities in the intrinsic and extrinsic coagulation pathways, respectively (Van Cott et al, editors. Jacobs & DeMott laboratory test handbook. 5th ed. Hudson Ohio: Lexi-Comp. p. 327-58 (2001)). These relatively simple assays measure the time until clot formation in platelet poor plasma (PPP) in response to either robust tissue factor (TF), or contact stimulation via negatively charged surfaces (i.e., silica, kaolin, celite). […] At high concentrations, the prothrombin aptamer (R9D-14T) was the most robust anticoagulant and inhibited greater than 96% of prothrombin activity in the aPTT and PT. At 4 μM, R9D-14T increased the aPTT clotting time approximately 18-fold and the PT clotting time greater than 80-fold (exceeded the assay limit of 999 sec). […] At the same dose, the FIXa aptamer (9.3T) inhibited greater than 99% of FIX activity and increased the aPTT clotting time approximately 5.5-fold, while the FVIIa aptamer (7S-1) increased the PT clotting time 3-fold and inhibited greater than 99% of FVII activity (FIGS. 20A and 20B).

Data set [6] can be described thus: Cardiopulmonary bypass on a juvenile pig. The format is in vivo. The note with it: 3-hr period of CPB.
The test system of data set [7] is clot formation in normal human platelet poor plasma. Put plainly: Prothrombin time (PT) plasma clotting assay. The format is biochemical. To be noted: for increase of PT clotting time: 4 μM aptamer. Here is the method:
as §3, §4

As for “9.3T: FIXa aptamer, 2'-fluoropyrimidine modified RNA, SEQ ID NO: 1 (AUGGGGACUAUACCGCGUAAUGCUGCCUCCCCAU; 2'-fluoro at CU, RNA at AG, backbone not given here) [Aptamer 9.3T]”, in data set [1] (RNA 1.00 μM), the Angle was 66.3 deg and 66.3 ± 1.3 deg; the Lag-time was 4.5 min and 4.5 ± 0.5 min; the “Max. Amplitude” value is 69.1 mm and 69.1 ± 1.5 mm. In data set [2], the “clot formation in isolated oxygenator circuit (in words)” value is reported as “failed to prevent clot formation” and the “time of clot formation after circulation was started” value is on record as “approximately 30 minutes”. Also, in data set [3] (2.0 micromolar, kaolin), the α is reported as 36.6 degrees, the MA is on record as 58.6 mm and the R was found to be 29.2 min. Besides, in data set [3] (FIXa aptamer 0.5 micromolar, kaolin), the “time of clot formation (bifurcation)” value amounted to 22.1 min. In addition, the “clot formation (in words)” value in data set [4] is “none of those aptamers prevented clot formation”. In data set [5], the “increase of aPTT clotting time” value was “approximately 5.5 fold”. Further, the “anticoagulation during CPB (in words)” value in data set [6] is listed as “failed to effect satisfactory anticoagulation”.

For the substance “R9D-14T: prothrombin/thrombin aptamer, 58-base truncation of RNA9D-14, SEQ ID NO: 3 (GGCGGTCGATCACACAGTTCAAACGTAATAAGCCAATGTACGAGGCAGACGACTCGCC; 2'-fluoro at CT, RNA at AG, backbone and T or U not given here) [Aptamer R9D-14T]”, in data set [1] (RNA 5.00 μM), the Angle is 15.2 deg and 15.2 ± 2.5 deg; the Lag-time is 39.4 min and 39.4 ± 5.0 min; the “Max. Amplitude” value was 36.8 mm and 36.8 ± 1.4 mm. Further, in data set [3] (5.0 micromolar, kaolin), the α amounted to 18.6 degrees, the MA is listed as 42.5 mm and the R turned out to be 31.3 min. Also, the “increase of PT clotting time” value in data set [7] is “greater than 80 fold”. The PT clotting time in data set [7] (4 μM, assay limit 999 sec) is > 999 s. In addition, the prothrombin activity inhibited entry in data set [7] (PT, high concentrations) is recorded as “greater than 96%”. Besides, the “increase of aPTT clotting time” value in data set [5] was “approximately 18 fold”. For the same substance, the prothrombin activity inhibited entry in data set [5] (aPTT, high concentrations) is given as “greater than 96%”.

Consider “11F7T: FXa aptamer, 2'-fluoropyrimidine modified RNA, SEQ ID NO: 2 (GAGAGCCCCAGCGAGAUAAUACUUGGCCCCGCUCUU; 2'-fluoro at CU, RNA at AG, backbone not given here) [Aptamer 11F7T]”, for which, in data set [1] (RNA 2.00 μM), the Angle is 21.4 deg and 21.4 ± 7.3 deg; the Lag-time is 51.1 min and 51.1 ± 12.2 min; the “Max. Amplitude” value is 51.1 mm and 51.1 ± 1.6 mm. Also, in data set [3] (2.0 micromolar, kaolin), the α worked out at 29.8 degrees, the MA is 48.4 mm and the R was 22.5 min. For the same substance, the “clot formation in TEG assays, single agents (in words)” value in data set [3] (data not shown) is listed as “delay, but do not prevent clot formation”. The “increase of PT clotting time” value in data set [7] is “approximately 8 fold”. For the same substance, in data set [4] (1.0 micromolar, buffer 69.7 mm), the MA is recorded as 59.5 mm. For the same substance, the “R, lag time” value in data set [4] (1.0 micromolar, buffer 4.4 minutes) was 17.8 min. In addition, the α in data set [4] (1.0 micromolar, buffer about 55 degrees) was 24 degrees. In addition, the “clot formation (in words)” value in data set [4] is “did not prevent the ultimate development of clot”. Further, the “increase of aPTT clotting time” value in data set [5] was “approximately 11 fold”.
